In test [1] the test system is Trichophyton mentagrophytes IFO 7522. Nature of the test: growth inhibition zone, paper disc agar diffusion. The class given is cell-based. The conditions noted are these: IFO7522, 48 h, Medium B, 1000 μg/ml, 28° C., two days, read-out: Diameter of growth inhibition zone. How it is done: (§1) Evaluation of the antifungal activities of the compound of the present invention was conducted by the following method: a sheet of filter paper disc (manufactured by Toyo Seisakusho, 8 mm in diameter) soaked in a 1000 μg/ml solution of a compound of the present invention in methanol was placed on an agar plate containing various fungi, which was incubated at 28° C. for two days, and the diameter of the growth inhibition zone around the filter paper disc was measured. The following culture media were used:
(§2) A: yeast nitrogen base agar medium (pH 7.0)
(§3) B: peptone-yeast extract-glucose agar medium (pH 7.0)
On the technique in general: Agar diffusion results depend on both activity and mobility in agar.

In test [2] the test system is Aspergillus niger IFO 4066. Description: growth inhibition zone, paper disc agar diffusion. The class given is cell-based. The conditions noted are these: IFO4066, 48 h, Medium A, 1000 μg/ml, 28° C., two days, read-out: Diameter of growth inhibition zone. How it is done:
as §1, §2, §3

In test [3] the test system is Cryptococcus neoformans IFO 0410. Nature of the test: growth inhibition zone, paper disc agar diffusion. The class given is cell-based. The conditions noted are these: IFO0410, 48 h, Medium A, 1000 μg/ml, 28° C., two days, read-out: Diameter of growth inhibition zone. The protocol:
as §1, §2, §3

In test [4] the test system is Microsporum gypseum IFO 6076. Nature of the test: growth inhibition zone, paper disc agar diffusion. As to conditions: Nannizzia gypsea, IFO6076, 48 h, Medium B, 1000 μg/ml, 28° C., two days, read-out: Diameter of growth inhibition zone. The class given is cell-based. How it is done:
as §1, §2, §3

In test [5] the test system is Candida albicans IFO 0583. Description: growth inhibition zone, paper disc agar diffusion. The class given is cell-based. The conditions noted are these: IFO0583, 48 h, Table 5, Medium A, 1000 μg/ml, 28° C., two days, read-out: Diameter of growth inhibition zone. The protocol: as §1, §2, §3
The subject of test [6] is Aspergillus fumigatus IFO 6344. Nature of the test: growth inhibition zone, paper disc agar diffusion. The class given is cell-based. The conditions noted are these: IFO6344, 48 h, Medium A, 1000 μg/ml, 28° C., two days, read-out: Diameter of growth inhibition zone. The protocol: as §1, §2, §3
Another test deals with Candida utilis IFO 0619. Nature of the test: growth inhibition zone, paper disc agar diffusion. The class given is cell-based. As to conditions: Williopsis jadinii, IFO0619, 48 h, Medium A, 1000 μg/ml, 28° C., two days, read-out: Diameter of growth inhibition zone. How it is done: as §1, §2, §3
The test system of test [7] is Trichophyton rubrum IFO 5467. Nature of the test: growth inhibition zone, paper disc agar diffusion. The conditions noted are these: IFO5467, 48 h, Medium B, 1000 μg/ml, 28° C., two days, read-out: Diameter of growth inhibition zone. The class given is cell-based. How it is done:
as §1, §2, §3

Another test has as its system Candida albicans TA. Nature of the test: protective effect against experimental infection in mice (survival rate 7 days after infection). The class given is in vivo, Crj:CDF1 mice. The conditions noted are these: po, 168 h, Table 7, P.O. once immediately after infection, 0.2% CMC, survival 7 days after infection. The protocol:
Test Method: Five-week-old Crj:CDF1 mice were inoculated with the minimum lethal dose of Candida albicans TA intravenously. The test compound was suspended in a solution of 0.2% or 0.5% sodium carboxymethylcellulose (CMC). The suspension was administered orally once immediately after infection. The activity was expressed in terms of ED50 values calculated by the Reed and Muench method from the survival rate 7 days after infection.
Test Method: Five-week-old Crj:CDF1 mice were inoculated with the minimum lethal dose of Candida albicans TA intravenously. The test compound was suspended in a solution of 0.5% sodium carboxymethylcellulose (CMC). The suspension was administered orally once immediately after infection. The activity was expressed in terms of ED50 values calculated by the Reed and Muench method from the survival rate 7 days after infection.

In general, zone of inhibition refers to the extent of the growth-free halo in a diffusion test. For `C[C@@H](N1CCN(c2ccc(F)cc2F)C1=O)[C@](O)(Cn1cncn1)c1ccc(F)cc1F` [Compound 2, 1-[(1R,2R)-2-(2,4-difluorophenyl)-2-hydroxy-1-methyl-3-(1H-1,2,4-triazol-1-yl)propyl]-3-(2,4-difluorophenyl)-2-imidazolidinone], the zone of inhibition at 1000 µg/mL in [1] came to 40 mm; in test [2], 27 mm; in [3], 31 mm; in [4], 41 mm; in test [5] it was 45 mm; in [6], 30 mm. Further, the zone of inhibition at 1000 µg/mL with Candida utilis IFO 0619 is 29 mm; in test [7] it was 50 mm.

One may read the ED50 as the dose that gives a 50% effect, or the effect in half of the subjects. Higher therefore signals weaker potency. For `C[C@@H](N1CCN(c2ccc(OC(F)(F)F)cc2)C1=O)[C@](O)(Cn1cncn1)c1ccc(F)cc1F` [Compound 1, 1-[(1R,2R)-2-(2,4-difluorophenyl)-2-hydroxy-1-methyl-3-(1H-1,2,4-triazol-1-yl)propyl]-3-(4-trifluoromethoxyphenyl)-2-imidazolidinone], the zone of inhibition at 1000 µg/mL in test [1] is 48 mm; in [2], 24 mm; in [3], 27 mm; in test [4], 49 mm; in [5], 36 mm; in [6] it was 31 mm. Moreover, the figures for the zone of inhibition at 1000 µg/mL (in the test with Candida utilis IFO 0619; in test [7]) were 25 mm and 47 mm, respectively. In the test with Candida albicans TA, this compound yielded a 50% effective dose (ED50) of 1.4 mg/kg.

As for `C[C@@H](N1CCN(c2ccc(C(F)(F)F)cc2)C1=O)[C@](O)(Cn1cncn1)c1ccc(F)cc1F` [Compound 4, 1-[(1R,2R)-2-(2,4-difluorophenyl)-2-hydroxy-1-methyl-3-(1H-1,2,4-triazol-1-yl)propyl]-3-(4-trifluoromethylphenyl)-2-imidazolidinone], the zone of inhibition at 1000 µg/mL in test [1] stood at 39 mm; in test [2], 26 mm; in test [3], 29 mm; in test [4], 42 mm; in test [5] it was 41 mm; in test [6], 34 mm. Besides, the zone of inhibition at 1000 µg/mL came to 31 mm with Candida utilis IFO 0619 and 43 mm in test [7]. For the same compound, the ED50 in the test with Candida albicans TA came out at 0.65 mg/kg.

Source of the values: US5792780A, “Azole compounds, their production and use” (Takeda Chemical Industries, Ltd., priority 1993, dated 1998).
